Reference: PMC12889028, “Discovery and biological evaluation of novel N-aryl-N′-methylbenzodrazides against Schistosoma japonicum in vitro and in vivo” (Microbiology Spectrum, 2025)
Where two headings read alike, the source gives them in different places.

Columns and labels:
[1] = tested on: HepG2 (human liver cancer) cells; test: Cytotoxicity MTT assay, HepG2; type: cell-based
Procedure: (§1) The cytotoxicity of compounds 5, 18, and 41 against human liver cancer (HepG2) and human breast cancer (MCF-7) cell lines in vitro was evaluated using the MTT assay, with cisplatin as a positive control. Cells were plated into 96-well plates and incubated in 100 μL of Dulbecco’s modified Eagle’s medium for 24 h. Test compounds at specified final concentrations were then added to the culture medium. After 48 h incubation, MTT dye (10 μL, 0.5 mg/mL) was added, and cells were incubated for an additional 4 h at 37°C in 5% CO2. Formazan crystals were dissolved in 100 μL DMSO per well, and absorbance at 570 nm (OD570) was measured using an ELx800 microplate reader (Bio-Tek, Winooski, VT, USA) with background subtraction. Cytotoxicity was expressed as IC50 (the concentration causing 50% reduction in cell growth compared to untreated controls). Experiments were performed in triplicate, with results presented as mean ± standard deviation.

[2] = tested on: MCF-7 (human breast cancer) cells; test: Cytotoxicity MTT assay, MCF-7; type: cell-based
Procedure: as §1

[3] = tested on: S. japonicum (Chinese strain); test: In vivo antischistosomal assay in infected mice (worm burden, worm morphology, liver eggs); set-up: species or system Schistosoma japonicum in ICR mice; conditions: for Morphology of worms after treatment in vivo, adult stage / Worm burden reduction (WBR), Adult / Number of worms, Adult / Morphology of worms after treatment in vivo, juvenile stage / Worm burden reduction (WBR), Juvenile / Number of worms, Juvenile: mice, oral 100 mg/kg/day for 5 days; for Worm burden reduction (WBR), Adult: adult stage (from 35 dpi); for Worm burden reduction (WBR), Adult / Worm burden reduction (WBR), Juvenile: 100 mg/kg/day; for Number of worms, Adult: adult stage (treatment from 35 dpi, sacrifice 45 dpi); for Worm burden reduction (WBR), Juvenile: juvenile stage (from 9 dpi); for Number of worms, Juvenile: juvenile stage (treatment from 9 dpi, sacrifice 45 dpi); for Hepatic egg burden, adult-stage treatment / Hepatic egg burden, juvenile-stage treatment: mouse livers at 45 dpi; for Hepatic egg burden, adult-stage treatment: treatment in adult stage; for Hepatic egg burden, juvenile-stage treatment: treatment in juvenile stage
Procedure: (§2) Lead compounds 5, 18, and 41 (100 mg/kg) were orally administered once daily for 5 consecutive days to infected mice (n = 6/group) during two therapeutic windows: (i) Juvenile stage: treatment initiated at 9 dpi, terminal sacrifice at 45 dpi; (ii) adult stage: treatment initiated at 35 dpi, terminal sacrifice at 45 dpi. Positive controls received praziquantel (PZQ, 100 mg/kg/day ×5 days); negative controls received PBS (0.3 mL). Mice treated at 9 dpi were euthanized 36 days post-treatment; those treated at 35 dpi were euthanized 10 days post-treatment. Adult worms were perfused from the hepatic portal system and mesenteric veins. Parasite burden was quantified by worm enumeration, and worm burden reduction (WBR) was calculated:
WBR (%)=[1−Mean worm count (treated) / Mean worm count (control)]×100% .

Acute oral toxicity = type: in vivo; conditions: ICR, mouse, in vivo, po, single oral dose, healthy ICR mice
Procedure: (§3) ICR mice (n = 10/group), aged 6 to 8 weeks, received a single oral dose of compounds 5, 18, and 41 (732–2,234 mg/kg). LD50 values were determined by Probit analysis (SPSS 26.0).

healthy mice = test: Acute oral toxicity; type: in vivo; conditions: single oral dose, healthy ICR mice
Procedure: as §3

[4] = Serum hepatic/renal function profiling of infected, treated mice; type: in vivo, ICR mice; conditions: for Serum GGT: normal range 1–15 U/L; for Serum TBIL: normal range 1.7–15.4 µM; for Serum BUN: normal range 4.9–10.4 mM; for Serum ALT: normal range 28–132 U/L; for Serum AST: normal range 59–247 U/L; for Nephrotoxicity: infected treated mice, judged from BUN
Procedure: Following maturation, Schistosoma parasites initiate oviposition, with a proportion of eggs migrating via the circulatory system to hepatic tissues. This ectopic deposition induces granuloma formation that subsequently elicits a cascade of immune-mediated pathologies, ultimately compromising hepatic and renal functions in murine models. To evaluate therapeutic efficacy, retro-orbital blood sampling was performed for comprehensive hepatic function profiling, enabling systematic assessment of pharmacological impacts on schistosomiasis-associated organ damage.
as §2, with “calculated: […]” for “calculated:”

[5] = tested on: adult worms of S. japonicum (Chinese strain); test: microbe, parasite or virus in culture; conditions: for mortality at 100 µM / LC50: Schistosoma japonicum; for LC50: read-out: LC50 (72 h)
Procedure: S. japonicum cercariae (Chinese strain) were acquired from infected Oncomelania hupensis snails (Wuxi Insect Vector Biology Co., Ltd., China) ([28]). ICR mice (6–8 weeks, 22–25 g; Hunan SJA Laboratory Animal Co., Ltd., China) were percutaneously infected via abdominal exposure to 60 ± 5 cercariae. Adult schistosomes were perfused from the hepatic portal system at 35 dpi using a modified Duvall and DeWitt method ([29]). Animals were housed under controlled conditions (22°C ± 1°C, 12 h light/dark cycle) with ad libitum access to feed and water.
Adult S. japonicum worms isolated from ICR mice were maintained in sterile culture medium (2.0 mL) comprising 77% RPMI 1640 (Lanzhou Bailing Biotech Co., Ltd.; pH 7.5, HEPES-buffered), 20% heat-inactivated fetal bovine serum (Lanzhou Minhai Bio-Engineering Co., Ltd.), and 3% penicillin-streptomycin (100×; 10,000 U/mL penicillin, 10,000 μg/mL streptomycin; New Cell & Molecular Biotech Co., Ltd., China). Incubation was performed at 37°C under 5% CO2. Test compounds were dissolved in DMSO as 0.1 M stock solutions; 2.0 μL aliquots were added to worm-containing media (final concentration: 100 μM in 0.1% DMSO). Negative controls received equivalent volumes of vehicle (0.1% DMSO in RPMI 1640). Parasite viability (motor activity, tegumental integrity, survival) was assessed every 12 h for 72 h using an Olympus CKX53 inverted microscope (n ≥ 3 independent replicates).

adult S. japonicum worms = test: SEM examination in vitro of tegumental damage; type: cell-based, Schistosoma japonicum; conditions: 100 μM
Procedure: Adult S. japonicum worms (male/female) underwent standardized fixation after in vitro exposure to compounds 5, 18, and 41 over a period of 12 h. First, the samples were immersed in 2.5% glutaraldehyde (prepared with 40 mL 0.2 M phosphate-buffered saline [PBS, pH 7.4], 5 mL 50% glutaraldehyde stock, and 55 mL ultrapure water) at 4°C for 24 h. After triple washes in PBS for 5 min each, worms were rinsed with deionized water for 10 min. The next dehydration sequence included ethanol gradient (50%, 70%, 80%, 90%, 100%; 5 min/step) and tert-butanol gradient (50%, 70%, 90%, 100%; 10 min/step). The worms were freeze-dried, directly sputter-covered with a thin gold layer using a Sputter Coater, and imaged using a scanning electron microscope (Quanta 450).

[6] = Homo sapiens, HepG2, 48 h incubation
[7] = Homo sapiens, MCF7, 48 h incubation
[8] = infected mice treated in adult stage
[9] = infected mice treated in juvenile stage
[10] = 24 h, read-out: Mortality (%) 24 h, 100 μM, 24 h, adult worms in vitro
[11] = 36 h, read-out: Mortality (%) 36 h, 100 μM, 36 h, adult worms in vitro
[12] = 48 h, read-out: Mortality (%) 48 h, 100 μM, 48 h, adult worms in vitro
[13] = 72 h, read-out: Mortality (%) 72 h, 100 μM, 72 h, adult worms in vitro

| Compound | Morphology of worms after treatment in vivo, adult stage [3] | Worm burden reduction (WBR), Adult [3] | Number of worms, Adult [3] | Morphology of worms after treatment in vivo, juvenile stage [3] | Worm burden reduction (WBR), Juvenile [3] | Number of worms, Juvenile [3] | Hepatic egg burden, adult-stage treatment [3] | Hepatic egg burden, juvenile-stage treatment [3] | IC50 [1, 6] | IC50 [2, 7] | LD50 (Acute oral toxicity) | LD50 (healthy mice) | LogLD50 (healthy mice) | Serum GGT [4, 8] | Serum TBIL [4, 8] | Serum BUN [4, 8] | Serum ALT [4, 8] | Serum AST [4, 8] | Serum GGT [4, 9] | LC50 ([5]; 72 h) | further results |
| --- | --- | --- | --- | --- | --- | --- | --- | --- | --- | --- | --- | --- | --- | --- | --- | --- | --- | --- | --- | --- | --- |
| N.N.[Cl][Pt][Cl] [Cisplatin, reference compound] | – | – | – | – | – | – | – | – | – | – | – | – | – | – | – | – | – | – | – | – | IC50 ([1]; 48 h incubation): 3.51 ± 0.14 µM; IC50 ([2]; 48 h incubation): 1.17 ± 0.13 µM |
| CN(NC(=O)c1ccc(Br)cc1)c1ccc(Cl)c(Cl)c1 [Compound 18] | making the males thicker and shorter | 20% | 35 | marked stunting of male schistosomes | 40% | 24 | comparable egg burdens to untreated controls | significantly reduced egg burdens | 22.6 ± 1.48 µM | 40.9 ± 2.82 µM | 1400 mg/kg | >2,000 mg/kg | >3.30 | 6.73 ± 9.70 U/L | 18.73 ± 6.05 µM | 8.68 ± 1.22 mM | 322.33 ± 239.58 U/L | 783.67 ± 457.47 U/L | 0.93 ± 0.81 U/L | 83 ± 1.9 µM | Serum TBIL [4, 9]: 2.98 ± 1.03 µM; Serum BUN [4, 9]: 12.53 ± 1.31 mM; Serum ALT [4, 9]: 546.00 ± 82.15 U/L; Serum AST [4, 9]: 673.67 ± 153.58 U/L; Nephrotoxicity [4]: transient nephrotoxicity; Mortality (%) 72 h ([5]; 100 μM, 72 h, adult worms in vitro): 100%; mortality at 100 µM [5, 10]: 10%; mortality at 100 µM [5, 11]: 50%; mortality at 100 µM [5, 12]: 80%; mortality at 100 µM [5, 13]: > 90% |
| CN(NC(=O)c1ccc(Br)cc1)c1ccc(C(F)(F)F)c(Cl)c1 [Compound 41] | making the males thicker and shorter | 30% | 31 | marked stunting of male schistosomes | 30% | 28 | comparable egg burdens to untreated controls | – | 20.7 ± 1.36 µM | 39.2 ± 3.53 µM | 1400 mg/kg | >2,000 mg/kg | >3.30 | 0.87 ± 0.32 U/L | 7.95 ± 2.11 µM | 7.79 ± 2.11 mM | 274.67 ± 186.53 U/L | 453.33 ± 217.99 U/L | 1.60 ± 0.17 U/L | 61.4 ± 1.8 µM | Serum TBIL [4, 9]: 3.61 ± 1.39 µM; Serum BUN [4, 9]: 6.18 ± 4.85 mM; Serum ALT [4, 9]: 364.00 ± 329.78 U/L; Serum AST [4, 9]: 557.67 ± 630.32 U/L; Nephrotoxicity [4]: without observable nephrotoxicity; mortality at 100 µM [5, 10]: 35%; mortality at 100 µM [5, 11]: 70%; mortality at 100 µM [5, 12]: 80%; mortality at 100 µM [5, 13]: 100% |
| O=C(C1CCCCC1)N1CC(=O)N2CCc3ccccc3C2C1 (centres unmarked) [PZQ, praziquantel, reference compound] | – | 100% | 0 | no significant tegumental alterations compared to negative controls | 0% | 39 | significantly reduced both ovum dimensions and egg counts | without statistically significant ovicidal efficacy | – | – | – | – | – | – | – | – | – | – | – | 43.8 ± 8.26 µM | Tegumental damage (SEM), female adult worms (adult S. japonicum worms; female worms): multifocal vesiculation, ulcerative lesions penetrating the basal lamina, and progressive tegumental corrugation; Tegumental damage (SEM), male adult worms (adult S. japonicum worms; male worms): extensive tegumental desquamation, complete muscular layer exposure with striation disruption, and ventral sucker collapse; mortality at 100 µM ([5]; 24 h, read-out: Mortality (%) 24 h): 100%; mortality at 100 µM ([5]; 36 h, read-out: Mortality (%) 36 h): 100%; mortality at 100 µM ([5]; 48 h, read-out: Mortality (%) 48 h): 100%; mortality at 100 µM ([5]; 72 h, read-out: Mortality (%) 72 h): 100% |
